The source of these data is patent publication US20090186907A1, “Pyrazinones As Cellular Proliferation Inhibitors” (E.I. DuPont De Nemours and Company, priority 2006, published 2009).

Molecules are shown by their SMILES.

The subject of series [1] is rhabdomyosarcoma (RD) cells. The experiment in a line: Assay for inhibition of cell proliferation (MTT), rhabdomyosarcoma cells. The format is cell-based, human. The following applies: for IC50: rhabdomyosarcoma (RD) cells, MTT, 96 h incubation; for RD Ratio (paclitaxel/compound): ratio of paclitaxel IC50 to compound IC50, RD cells. The procedure: (§1) Human rabdomyosarcoma (RD) and mouse neuroblastoma (N1E115) cell lines were obtained from the American Type Culture Collection (ATCC, Rockville, Md.). The RD cells were grown in Dulbecco's modified eagle medium (DMEM) supplemented with 4 mM glutamine, containing 10% fetal bovine serum (ATCC #30-2020) and supplemented with 1% penicillin and 1% streptomycin. When confluent, the cells were maintained by passage (about once per week) until needed. The N1E115 line was also cultured in DMEM with 4 mM glutamine containing 10% newborn calf serum (Gibco, Grand Island, N.Y.) and likewise maintained.
(§2) The proliferation of rhabdomyosarcoma cells was determined using a cell proliferation assay kit based on the formation of insoluble formazan crystals from 3-(4,5-dimethylthiazol-2-yl)-2,5-diphenyltetrazolium bromide (MTT). The rhabdomyosarcoma cells were cultured to a density of 10^5 cells per mL. The cell culture (100 μL) was dispensed into wells of a 96-well plate to 10^4 cells per well. The plate was incubated at 37° C. for 3 h until the cells firmly attached to the well surfaces.
(§3) A second 96-well round bottom plate was made up containing the test compounds, serially diluted to cover the concentration range of interest using the DMEM medium plus antibiotics. The final concentration of DMSO in which the compounds were initially dissolved was maintained at a constant 0.5% in each well and the volume of the compounds in the plate was 220 μL. Following the 3 h incubation the medium was removed from the plate containing the cells and replaced with 200 μL of the solutions containing the compounds. The cells were incubated for a further 96 h before the assessment of growth inhibition using MTT.
(§4) The cells were left bathing in 100 μL of the saline solution to which was added 100 μL of MTT in saline (12 mM). Incubation was continued for 4 h at 37° C. to produce the blue formazan color which was quantified by optical density measurements at 570 nm. Background correction of all test wells was performed by subtraction of the yellow MTT solution color measured at 570 nm in cell-free wells. The data were normalized to solvent only control wells.

The subject of series [2] is neuroblastoma (N1E115) cells. The experiment in a line: Assay for inhibition of cell proliferation (MTT), neuroblastoma cells. In kind it is cell-based, mouse. The following applies: for IC50: neuroblastoma (N1E115) cells, MTT; for N1E115 Ratio (paclitaxel/compound): ratio of paclitaxel IC50 to compound IC50, N1E115 cells. The procedure:
as §1, §2, §3, §4

In general, melting point refers to the temperature, or range, at which the solid turns liquid. Turning to `CC(C)Cn1c(-c2c(F)cccc2F)c(Cl)nc(C#N)c1=O` [Compound 5, 6-Chloro-5-(2,6-difluorophenyl)-3,4-dihydro-4-(2-methylpropyl)-3-oxopyrazinecarbonitrile], the melting point was 100 to 102 °C.

The term IC50 denotes the point on the concentration scale where inhibition reaches its midpoint. For `CC[C@H](C)Cn1c(-c2c(F)cc(OCCCNC)cc2F)c(Cl)nc(-n2ccc(C)n2)c1=O` [Compound 494, 5-chloro-6-[2,6-difluoro-4-[3-(methylamino)propoxy]phenyl]-1-[(2S)-2-methylbutyl]-3-(3-methyl-1H-pyrazol-1-yl)-2(1H)-pyrazinone], the IC50 in series [1] (Homo sapiens) stood at 0.0004 µM; in series [2] (Mus musculus, N1E-115), 0.0013 µM. For the same molecule, in series [1], the “RD Ratio (paclitaxel/compound)” value is on record as 42.50. In addition, in series [2], the “N1E115 Ratio (paclitaxel/compound)” value amounted to 67.69.

Regarding `CC(C)Cn1c(-c2c(F)cc(OCCCN(C)C)cc2F)c(Cl)nc(-n2cccn2)c1=O` [Compound 495], in series [1], the “RD Ratio (paclitaxel/compound)” value is reported as 0.49 and 0.035 µM corresponded to half-maximal inhibition (IC50). In addition, in series [2], inhibition was half-maximal at 0.353 µM (IC50) and the “N1E115 Ratio (paclitaxel/compound)” value stood at 0.25.

For the molecule `CNCCCOc1cc(F)c(-c2c(Cl)nc(-n3ccc(C)n3)c(=O)n2CC(C)C)c(F)c1` [Compound 496], in series [1], the “RD Ratio (paclitaxel/compound)” value was found to be 0.40 and the IC50 is 0.043 µM. Besides, in series [2], the midpoint of inhibition, the IC50, lay at 0.09 µM and the “N1E115 Ratio (paclitaxel/compound)” value turned out to be 0.98.

In the case of `Cc1ccn(-c2nc(Cl)c(-c3c(F)cc(OCCCN(C)C)cc3F)n(CC(C)C)c2=O)n1` [Compound 497], in series [1], the “RD Ratio (paclitaxel/compound)” value amounted to 0.22 and inhibition was half-maximal at 0.077 µM (IC50). In series [2], half-maximal inhibition (IC50) was put at 0.18 µM and the “N1E115 Ratio (paclitaxel/compound)” value is given as 0.49.

`CC[C@H](C)Cn1c(-c2c(F)cc(OCCCN(C)C)cc2F)c(Cl)nc(-n2ccc(C)n2)c1=O` [Compound 498, 5-chloro-6-[4-[3-(dimethylamino)propoxy]-2,6-difluorophenyl]-1-[(2S)-2-methylbutyl]-3-(3-methyl-1H-pyrazol-1-yl)-2(1H)-pyrazinone]: the IC50 in series [1] (Homo sapiens) is 0.0038 µM; in series [2] (Mus musculus, N1E-115) it was 0.014 µM. Besides, the “RD Ratio (paclitaxel/compound)” value in series [1] is 4.47. Also, the “N1E115 Ratio (paclitaxel/compound)” value in series [2] stood at 6.29.

On to `CC[C@H](C)Cn1c(-c2c(F)cc(OCCCN(C)C(C)=O)cc2F)c(Cl)nc(-n2cccn2)c1=O` [Compound 499], for which, in series [1], the “RD Ratio (paclitaxel/compound)” value amounted to 1.70 and the IC50 stood at 0.01 µM. In series [2], the IC50 was 0.012 µM and the “N1E115 Ratio (paclitaxel/compound)” value turned out to be 7.33.

Turning to `CNCCCOc1cc(F)c(-c2c(Cl)nc(-n3cccn3)c(=O)n2CC(C)C)c(F)c1.Cl` [Compound 500], in series [1], the “RD Ratio (paclitaxel/compound)” value stood at 8.50 and the concentration for half-maximal inhibition (IC50) stood at 0.002 µM. In series [2], 0.016 µM corresponded to half-maximal inhibition (IC50) and the “N1E115 Ratio (paclitaxel/compound)” value is 5.50.

In the case of `CC[C@H](C)Cn1c(-c2c(F)cc(OC(C)=O)cc2F)c(Cl)nc(-n2cccn2)c1=O` [Compound 501], in series [1], the “RD Ratio (paclitaxel/compound)” value amounted to 0.30 and the midpoint of inhibition, the IC50, lay at 0.057 µM. Further, in series [2], the IC50 is 0.062 µM and the “N1E115 Ratio (paclitaxel/compound)” value amounted to 1.42.

For `CC[C@H](C)Cn1c(-c2c(F)cc(O)cc2F)c(Cl)nc(-n2cccn2)c1=O` [Compound 503], in series [1], the “RD Ratio (paclitaxel/compound)” value stood at 0.15 and it took 0.114 µM to reach half-maximal inhibition (IC50). Besides, in series [2], it took 0.256 µM to reach half-maximal inhibition (IC50) and the “N1E115 Ratio (paclitaxel/compound)” value is listed as 0.34.

As to `CC[C@H](C)Cn1c(-c2c(F)cc(OC)cc2F)c(Cl)nc(-n2ccc(C)n2)c1=O` [Compound 504], in series [1], the “RD Ratio (paclitaxel/compound)” value is given as 1.04 and the IC50 was determined as 0.0163 µM. For the same molecule, in series [2], 0.102 µM corresponded to half-maximal inhibition (IC50) and the “N1E115 Ratio (paclitaxel/compound)” value came out at 0.86.

For the molecule `CC(=O)O[C@H]1C(=O)[C@@]2(C)[C@H]([C@H](OC(=O)c3ccccc3)[C@]3(O)C[C@H](OC(=O)[C@H](O)[C@@H](NC(=O)c4ccccc4)c4ccccc4)C(C)=C1C3(C)C)[C@]1(OC(C)=O)CO[C@@H]1C[C@@H]2O` [paclitaxel, reference compound], the IC50 in series [1] (Homo sapiens) came out at 0.017 µM; in series [2] (Mus musculus, N1E-115), 0.088 µM.
